Assay results reported in patent US6245778A, “1,6-naphthyridine anti-convulsants” (SmithKline Beecham p.l.c., priority 1997, dated 2001).
Structures can show the parent of a compound that is named as a salt.

What follows are compounds tested on electrically-induced seizures (tonic seizure threshold, CC50) (assay: Maximal electroshock seizure (MEST) threshold test). Conditions: mice, 10 mg/kg p.o., suspension in methyl cellulose, one hour post dosing.
Format: in vivo

SMILES	increase in seizure threshold (CC50) compared to control [%]
COc1ccc(C(=O)Nc2cnc3c(c2)CN(C)CC3)cc1Br.Cl [Example 1, N-(6-Methyl-5,6,7,8-tetrahydro[1,6]naphthyridin-3-yl)-3-bromo-4-methoxybenzamide, monohydrochloride]	177
CN1CCc2ncc(NC(=O)c3ccccc3)cc2C1 [Example 2, N-(6-Methyl-5,6,7,8-tetrahydro[1,6]naphthyridin-3-yl)-benzamide]	97
CCOc1ccc(C(=O)Nc2cnc3c(c2)CN(C)CC3)cc1 [Example 5, N-(6-Methyl-5,6,7,8-tetra hydro[1,6]naphthyridin-3-yl)-4-ethoxybenzamide, monohydrochloride]	106

The compounds below were run against novel receptor obtainable from rat forebrain tissue (assay: Radioligand binding assay, displacement of [3H]-Compound A from rat forebrain tissue). Conditions: [3H]-Compound A 20 nM, room temperature, 1 hour.
Description: The affinity of test compounds to the novel receptor site is assessed as follows. Whole forebrain tissue is obtained from rats. The tissue is first homogenised in buffer (usually 50 mM Tris/HCl, pH 7.4). The homogenised tissue is washed by centrifugation and resuspension in the same buffer, then stored at -70° C. until used. […] The final concentration of [3H]-Compound A in the mixture is usually 20 nM. The mixture is incubated at room temperature for 1 hour. [3H]-Compound A bound to the tissue is then separated from unbound [3H]-Compound A by filtration through Whatman GF/B glass fibre filters. The filters are then washed rapidly with ice-cold buffer. The amount of radioactivity bound to the tissue trapped on the filters is measured by addition of liquid scintillation cocktail to the filters followed by counting in a liquid scintillation counter. In order to determine the amount of "specific" binding of [3H]-Compound A, parallel assays are carried out as above in which [3H]-Compound A and tissue are incubated together in the presence of unlabelled Compound A (usually 3 μM). The amount of binding of [3H]-Compound A remaining in the presence of this unlabelled compound is defined as "non-specific" binding. This amount is subtracted from the total amount of [3H]-Compound A binding (i.e. that present in the absence of unlabelled compound) to obtain the amount of "specific" binding of [3H]-Compound A to the novel site. The affinity of the binding of test compounds to the novel site can be estimated by incubating together [3H]-Compound A and tissue in the presence of a range of concentrations of the compound to be tested. The decrease in the level of specific [3H]Compound A binding as a result of competition by increasing concentrations of the compound under test is plotted graphically, and non-linear regression analysis of the resultant curve is used to provide an estimate of compound affinity in terms of pKi value.

in vitro binding affinity, pKi	SMILES
> 8.0	COc1ccc(C(=O)Nc2cnc3c(c2)CN(C)CC3)cc1Br.Cl [Example 1, N-(6-Methyl-5,6,7,8-tetrahydro[1,6]naphthyridin-3-yl)-3-bromo-4-methoxybenzamide, monohydrochloride]
> 8.0	COc1cc(C(C)(C)C)ccc1C(=O)Nc1cnc2c(c1)CN(C)CC2.Cl [Example 3, N-(6-Methyl-5,6,7,8-tetrahydro[1,6]naphthyridin-3-yl)-2-methoxy-4-t-butylbenzamide, monohydrochloride]
> 8.0	CN1CCc2ncc(NC(=O)c3ccc(C(C)(C)C)cc3)cc2C1 [Example 10, N-(6-Methyl-5,6,7,8-tetrahydrol[1,6]naphthyridin-3-yl)-4-t-butylbenzamide, monihydrochloride]
> 8.0	CCOc1ccc(C(=O)Nc2cnc3c(c2)CN(C)CC3)cc1Br [Example 11, N-(6-Methyl-5,6,7 ,8-tetrahydro[1,6]naphthyridin-3-yl)-3-bromo-4-ethoxybenzamide, monohydrochloride]
> 8.0	CC(C)Oc1ccc(C(=O)Nc2cnc3c(c2)CN(C)CC3)cc1Br.Cl [Example 12, N-(6-Methyl-5,6,7,8-tetrahydro[1,6]naphthyridin-3-yl)-3-bromo-4-iso-propyloxybenzamide, monohydrochloride]
> 8.0	CCOc1ccc(C(=O)Nc2cnc3c(c2)CN(C)CC3)cc1[N+](=O)[O-].Cl [Example 20, N-(6-Methyl-5,6,7,8-tetrahydro[1,6]naphthyridin-3-yl)-4-ethoxy-3-nitrobenzamide hydrochloride]
> 8.0	COc1ccc(C(=O)Nc2cnc3c(c2)CN(C)CC3)cc1I.Cl [Example 28, N-(6-Methyl-5,6,7,8-tetrahydro[1,6]naphthyridin-3-yl)-3-iodo-4-methoxybenzamide hydrochloride]
> 8.0	CCCOc1ccc(C(=O)Nc2cnc3c(c2)CN(C)CC3)cc1C#N [Example 30, N-(6-Methyl-5,6,7,8-tetrahydro[1,61naphthyridin-3yl)-3-cyano-4-n-propyloxybenzamide, hydrochloride]
> 8.0	CC(C)Oc1ccc(C(=O)Nc2cnc3c(c2)CN(C)CC3)cc1Cl.Cl [Example 33, N-(6-Methyl-5,6,7,8-tetrahydro[1,6]naphthyridin-3-yl)-3-chloro-4-iso-propyloxybenzamide, hydrochloride]
> 8.0	CC(C)Oc1ccc(C(=O)Nc2cnc3c(c2)CN(C)CC3)cc1C(F)(F)F.Cl [Example 36, N-(6-Methyl-5,6,7,8-tetrahydro[1,6]naphthyridin-3-yl)-4-iso-propyloxy-3-trifluoromethylbenzamide, hydrochloride]
